In US20160297828A1, “SPIROCYCLIC COMPOUNDS CONTAINING SPIRO[INDOLYL-3,1'-PYRROLO[3,4-C]PYRROLE] CORE AND SULPHUR-CONTAINING AMINO ACID RESIDUES” (priority 2013, published 2016):
“And” between values parts separate entries of the source, which are not always exact repeats. Equal entries are not always repeated.

Legend:
liver and pancrea cells = assay: Pro/antiapoptosis properties, electrophoresis of DNA fragments; format: in vivo; settings: intact male Wistar rats; 50 mg/kg
Method: The assessment of pro/antiapoptotosis properties of substances was carried in intact male rats of Wistar line. The test substance were administered for 2 weeks by means of a probe in aqueous suspension containing Tween-80 at a dose of 50 mg/kg of body weight. The animals were euthanized by cervical vertebrae translocation 24 hours after the experiment. The identification of apoptosis of liver and pancrea cells was performed using electrophoretic method. […] Cell necrosis conditioned the “smeared” nature of DNA migration zone. The luminescence band of intact DNA was in the starting area.
The expression of apoptosis manifestations was assessed by registration of DNA fragments via electrophoresis.

[1] = system: rats with intracerebral hemorrhage; assay: Conditioned response of passive avoidance (CRPA) in rats with intracerebral hemorrhage; format: in vivo; settings: 21st day, n = 15
Method: Neuroprotective effect of 3,2′-spiro-pyrrolo-2-oxindole derivative (SI-86 compound) was studied on IUD model of moderate severity modeled under propofol anesthesia (60 mg/kg intraperitoneally (ip)) by autoblood administration into the brain internal capsule (stereotactic coordinates of the projection: H=7.0 mm, L=3.0 mm, A=1.5 mm from bregma) ([…]) (Method for reproduction of intracerebral hemorrhage in rats/O. K. Yarosh, S. V. Kyrychenko, S. P. Halimonchyk [et al.]//Circulation and hemostasis.-2005.-No. 1.-P. 77-81). The chosen model allows to reproduce clinical pattern of […] and is adequate for clinical study of potential neuroprotective agents.
As comparators the following drugs were used: mexydol (“Mexydol” UC Pharmasoft, Russia), 100 mg/kg; citicoline (“Somazina” Ferrer International, SA, Spain), 250 mg/kg; aktovegin (“Aktovegin”, Nycomed, Austria), 16 mg/kg pyracetam (“Pyracetam” Darnitsa, Ukraine), 400 mg/kg. According to the latest clinical guidelines regarding the treatment of patients with CVA approved by the Ministry of Health of Ukraine (Order No. 602 dated 3 Aug. 2012), all these drugs are allowed to be included into schemes for intensive patients therapy with CVA as neuroprotective agents. They were used at recommended doses for preclinical studies (McGrow C. P. Experimental Cerebral Infarction Effects of Pentobarbital in Mongolian Gerbils/C. P. McGrow//Arch. Neurol.-1977.-Vol. 34, No. 6.-P. 334-336). Experimental therapy of acute cerebral ischemia with SI-86 compound and comparator started 1 hour after IUD once a day for 21 days. The SI-86 derivative was investigated in conventionally effective dose of 10 mg/kg […] (iv)-dose that according to the results of our previous study provides maximum antihypoxic activity of SI-86 compound. Reference drugs were injected intraperitoneally (ip). Rats of control pathology group were injected by autoblood and as therapy 0.9% NaCI solution was administered calculated for 2 ml/kg […].
Evaluation of the ability of animals to learn and memorize of aversive stimulus was examined in the test of conditioned response of passive avoidance (CRPA). The technique is based on innate rat instinct to limited shadowy space. The study in rats was conducted in two-compartment unit consisted of two sections—light and dark. An animal was arranged into light compartment, fixing latency time for entering into the dark compartment, wherein rat received current irritation and ran in the light compartment. CRPA retention was tested every other day under latency time change of rat entering into the dark compartment. Also the number of animals was noted not fully entered the dark chamber. Cerebroprotective efficiency criteria of studied compounds were also animal death term (days) and their mortality rate (in %).

11β-corticosterone [2] = assay: 11β-corticosterone level in venous blood of rats with bilateral carotid occlusion (ELISA); format: in vivo, Wistar rats; settings: for dynamics in percents in relation to control pathology group / dynamics in percents in relation to the group of pseudo-operated animals / 11β-corticosterone level in venous blood: BCO
Method: The neuroprotective effect of 3,2′-spiro-pyrrolo-2-oxindole derivative (SI-86 compound) was studied in Wistar rats on a model of cerebrovascular accident (CVA) of ischemic type in archencephalic pool forming bilateral carotid occlusion (BCO) by carotid artery ligation. The ligations for common carotid arteries was imposed under propofol anesthesia at a dose of 60 mg/kg intraperitoneally (ip), using surgical access to the front of the neck cutting through its white line. The chosen model allows to reproduce the clinical pattern of ischemic stroke and is adequate for clinical study of potential neuroprotective substances (Drug discovery and Evaluation: pharmacological assays/H. Gerhard Vogel (ed.).-2nd ed. 1453p.).
The derivative of 3,2′-spiro-pyrrolo-2-oxindole was investigated in conventionally effective dose of 10 mg/kg […] (iv)—dose which is provided maximum antihypoxic activity of SI-86 compound by the results of our previous study. The reference drugs were injected intraperitoneally (ip). BCO was applied to the rats of control pathology and 0.9% NaCI solution was administered as therapy calculated for 2 ml/kg ip.
(§1) Pseudo-operated rats were exposed to all interventions (anesthesia, skin incision, dissection of vessels) except arteries ligation that leveled traumatic impact of experimental conditions.
(§2) To determine a corticosterone level (species-specific cortisol analogue in rats, which is also a substrate for 11β-HSD1) in the corresponding period (4 th and 21 st CVA day) in rat by sagittal sinus puncture, blood was sampled (0.2-0.4 ml). The cortisol level was measured by ELISA using a CORTICOSTERONEE KIT set (Germany) on the instrument of the company “Hipson” (Czech Republic).

11β-corticosterone [3] = assay: 11β-corticosterone level in venous blood of pseudo-operated rats (ELISA); format: in vivo, Wistar rats; settings: pseudo-operated animals + SI-86 10 mg/kg iv
Method: as §1, §2
To establish the effect of course administration of SI-86 compound on steroid synthesis in animals without cerebral ischemia the dynamics of its level in pseudo-operated rats in the same period was additionally determined.

rats = assay: Acute toxicity in rats; format: in vivo; settings: for Effect (died/total): 2 weeks observation
Method: (§3) The acute toxicity study was conducted when administered compounds SI-86 to rats into the stomach at doses of 3500 and 4000 mg/kg. Each dose was tested in 4 animals. The duration of observation of rats after administration of test compound was 2 weeks.

Acute toxicity in rats = format: in vivo; settings: rat, in vivo, oral; rats
Method: as §3

## CSCC[C@@H]1N[C@@]2(C(=O)Nc3ccccc32)[C@@H]2C(=O)N(c3ccc(C)cc3)C(=O)[C@H]12 [SI-86, 5′-(4-Methylphenyl)-3′-[2-(methylthio)ethyl]-3a′,6a′-dihydro-2′H-spiro[indole-3,1′-pyrrolo[3,4-c]pyrrol]-2,4′,6′(1H,3′H,5′H)-trione]
Liver and pancrea cells
  level of apoptosis: closed to that of control group
[1]; SI-86 10 mg/kg iv, mexydol 100, citocoline 250, actovegin 16, pyracetam 400 mg/kg ip
  Latent period for entrance into dark compartment, prior study: 9.50 ± 0.34°*^#•$ s
[1]; same doses
  Latent period for entrance into dark compartment, 24 hours after study: 127.10 ± 2.71°*^#•$ s
11β-corticosterone [2]; day 4
  dynamics in percents in relation to control pathology group: [−60.2%]
  dynamics in percents in relation to the group of pseudo-operated animals: (+54.8%)
11β-corticosterone [2]; day 4, SI-86 10 mg/kg iv, citocoline 250 mg/kg ip
  11β-corticosterone level in venous blood: 186.12 ± 1.43°*^# ng/ml
11β-corticosterone [2]; day 21
  dynamics in percents in relation to control pathology group: [−57.1%]
  dynamics in percents in relation to the group of pseudo-operated animals: (+55.2%)
11β-corticosterone [2]; day 21, same doses
  11β-corticosterone level in venous blood: 144.67 ± 3.43°*^#• ng/ml
11β-corticosterone [2]; CVA acute period
  ability to reduce corticosterone content, better than citocoline: 1.46 times
11β-corticosterone [2]; after 96 hours
  corticosterone concentration in sagittal sinus blood decreased in relation to the control pathology group: 60.2%
11β-corticosterone [2]; after 21 days
  corticosterone concentration in sagittal sinus blood decreased in relation to the control pathology group: 57.1%
11β-corticosterone [2]; recovery period
  ability to reduce corticosterone content, better than citocoline: 1.62 times
11β-corticosterone [3]; day 4
  11β-corticosterone level in venous blood: 81.95 ± 0.61 ng/mL
  dynamics in percents in relation to the group of pseudo-operated animals: (−31.9%)
11β-corticosterone [3]; day 21
  11β-corticosterone level in venous blood: 83.02 ± 4.25 ng/mL
  dynamics in percents in relation to the group of pseudo-operated animals: (−10.2%)
rats; 3500 mg/kg single administration
  Effect (died/total): all animals survived and 0/4
rats; 4000 mg/kg
  rats died: 25%
rats; 4000 mg/kg single administration
  Effect (died/total): 1/4
rats; rat, in vivo
  toxicity class according to Hodge and Sterner classification: IV class of toxicity
Acute toxicity in rats
  LD50 at 2 weeks: 501 to 5000 mg/kg
